target: mGluR4 (UniProt Q14833); assay: mGluR4 potentiation assay (fluorescence, Ca2+ or thallium/GIRK readout; EC20 agonist); format: cell-based, human / rat; conditions: half maximal effective concentration for mGluR4 potentiation; species of receptor not given
Summary of the method: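 Human mGluR4 in CHO cells (Ca2+ dye) or rat mGluR4 with GIRK in HEK cells (thallium dye), read kinetically. Potentiation EC50 and maximum fitted from compound concentration-response at fixed agonist.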

Compound	EC50 [nM]
O=C(Nc1ccc(N2C(=O)C3COCCN3C2=S)c(Cl)c1)c1nccs1 (stereo not shown) [Example 1.3.34, N-(3-Chloro-4-(1-oxo-3-thioxodihydro-1H-imidazo[5,1-c][1,4]oxazin-2(3H,8H,8aH)-yl)phenyl)thiazole-2-carboxamide]	1170
O=C(Nc1ccc(N2C(=O)C3CCCCN3C2=O)c(Cl)c1)c1ccncn1 (stereo not shown) [Example 1.3.6, N-(3-Chloro-4-(1,3-dioxotetrahydroimidazo[1,5-a]pyridin-2(1H,3H,5H)-yl)phenyl)pyrimidine-4-carboxamide]	2580
CC(C)(C)[C@@H]1NC(=O)N(c2ccc(NC(=O)c3ccccn3)cc2Cl)C1=O [Example 1.3.57, (S)-N-(4-(4-(tert-butyl)-2,5-dioxoimidazolidin-1-yl)-3-chlorophenyl)picolinamide]	200
C[C@@]1(Cc2ccccc2)NC(=O)N(c2ccc(NC(=O)c3cccc(F)n3)cc2Cl)C1=O [Example 1.3.69, (S)-N-(4-(4-benzyl-4-methyl-2,5-dioxoimidazolidin-1-yl)-3-chlorophenyl)-6-fluoropicolinamide]	1630
O=C(Nc1ccc(N2C(=O)C3CCCN3C2=O)c(Cl)c1)c1ccccn1 (stereo not shown) [Example 1.3.9, N-(3-chloro-4-(1,3-dioxo-1H-pyrrolo[1,2-c]imidazol-2(3H,5H,6H,7H,7aH)-yl)phenyl)picolinamide]	2110
O=C(Nc1ccc(N2C(=O)C3CCCCN3C2=S)c(Cl)c1)c1nccs1 (stereo not shown) [Example 1.3.79, N-(3-chloro-4-(1-oxo-3-thioxohexahydroimidazo[1,5-a]pyridin-2(3H)-yl)phenyl)thiazole-2-carboxamide]	1340
O=C(Nc1ccc(N2C(=O)C3CCCCN3C2=S)c(Cl)c1)c1ccc(Cl)o1 (stereo not shown) [Example 1.3.82, 5-chloro-N-(3-chloro-4-(1-oxo-3-thioxohexahydroimidazo[1,5-a]pyridin-2(3H)-yl)phenyl)furan-2-carboxamide]	2850
O=C(Nc1ccc(N2C(=O)NC3(CCCCC3)C2=O)c(C(F)(F)F)c1)c1ccccn1 [Example 1.3.50, N-(4-(2,4-dioxo-1,3-diazaspiro[4.5]decan-3-yl)-3-(trifluoromethyl)phenyl)picolinamide]	454
CC12CCCCN1C(=S)N(c1ccc(NC(=O)c3cscn3)cc1Cl)C2=O (stereo not shown) [Example 1.3.95, N-(3-chloro-4-(8a-methyl-1-oxo-3-thioxohexahydroimidazo[1,5-a]pyridin-2(3H)-yl)phenyl)thiazole-4-carboxamide]	1050
CC12CCCCN1C(=O)N(c1ccc(NC(=O)c3ccc(Cl)o3)cc1Cl)C2=O (stereo not shown) [Example 1.3.89, 5-chloro-N-(3-chloro-4-(8a-methyl-1,3-dioxohexahydroimidazo[1,5-a]pyridin-2(3H)-yl)phenyl)furan-2-carboxamide]	4670
